Source: patent publication US10798941B2, “Microbiocidal oxadiazole derivatives” (SYNGENTA PARTICIPATIONS AG, priority 2016, dated 2020)

Legend:
[1] = system: Glomerella Lagenarium (Colletotrichum Lagenarium); test: Glomerella lagenarium (Colletotrichum lagenarium) liquid culture / cucumber / preventative (anthracnose); type: cell-based; settings: Colletotrichum orbiculare; 20 ppm in the applied formulation; liquid culture in PDB, 24° C., inhibition of growth measured photometrically 3 to 4 days after application, vs untreated; read-out: disease control
Summary of the method: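 Conidia from cryogenic storage were mixed into potato dextrose broth. This was added to compound diluted from DMSO into 0.025% Tween20, tested at 20 ppm. Plates were incubated in the dark at 24 °C and 96% relative humidity, and growth was read photometrically after 2–7 days as % activity versus untreated check.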

[2] = system: Phakopsora pachyrhizi; test: Phakopsora pachyrhizi / soybean / leaf disc preventative (Asian soybean rust); type: in vivo; settings: foliar, 288 h, 200 ppm in the applied formulation, soybean leaf disks, inoculated one day after application, assessed 12 to 14 days after application, vs untreated, read-out: disease control
Experimental: (§1) Leaf disks or leaf segments of various plant species are cut from plants grown in a greenhouse. The cut leaf disks or segments are placed in multiwell plates (24-well format) onto water agar. The leaf disks are sprayed with a test solution before (preventative) or after (curative) inoculation. Compounds to be tested are prepared as DMSO solutions (max. 10 mg/ml) which are diluted to the appropriate concentration with 0.025% Tween20 just before spraying. The inoculated leaf disks or segments are incubated under defined conditions (temperature, relative humidity, light, etc.) according to the respective test system. A single evaluation of disease level is carried out 3 to 14 days after inoculation, depending on the pathosystem. Percent disease control relative to the untreated check leaf disks or segments is then calculated.
Soybean leaf disks are placed on water agar in multiwell plates (24-well format) and sprayed with the formulated test compound diluted in water. One day after application leaf discs are inoculated by spraying a spore suspension on the lower leaf surface. After an incubation period in a climate cabinet of 24-36 hours in darkness at 20° C. and 75% rh leaf disc are kept at 20° C. with 12 h light/day and 75% rh. The activity of a compound is assessed as percent disease control compared to untreated when an appropriate level of disease damage appears in untreated check leaf disks (12 to 14 days after application).
(§2) The following compounds at 200 ppm in the applied formulation give at least 80% disease control in this test when compared to untreated control leaf disks under the same conditions, which show extensive disease development.

[3] = system: Puccinia recondita f. Sp. Tritici; test: Puccinia recondita f. sp. tritici / wheat / leaf disc preventative (brown rust); type: in vivo; settings: foliar, 168 h, 200 ppm in the applied formulation, wheat leaf segments cv. Kanzler, preventative, inoculated 1 day after application, assessed 7 to 9 days after application, vs untreated, read-out: disease control
Experimental: as §1
Wheat leaf segments cv. Kanzler were placed on agar in multiwell plates (24-well format) and sprayed with the formulated test compound diluted in water. The leaf disks were inoculated with a spore suspension of the fungus 1 day after application. The inoculated leaf segments were incubated at 19° C. and 75% relative humidity (rh) under a light regime of 12 hours light/12 hours darkness in a climate cabinet and the activity of a compound was assessed as percent disease control compared to untreated when an appropriate level of disease damage appears in untreated check leaf segments (7 to 9 days after application).
as §2

[4] = system: Puccinia recondita f. Sp. Tritici; test: Puccinia recondita f. sp. tritici / wheat / leaf disc curative (brown rust); type: in vivo; settings: foliar, 144 h, 200 ppm in the applied formulation, wheat leaf segments cv. Kanzler, applied 1 day after inoculation, assessed 6 to 8 days after application, vs untreated, read-out: disease control
Experimental: as §1
Wheat leaf segments cv. Kanzler are placed on agar in multiwell plates (24-well format). The leaf segments are then inoculated with a spore suspension of the fungus. Plates were stored in darkness at 19° C. and 75% relative humidity. The formulated test compound diluted in water was applied 1 day after inoculation. The leaf segments were incubated at 19° C. and 75% relative humidity under a light regime of 12 hours light/12 hours darkness in a climate cabinet and the activity of a compound was assessed as percent disease control compared to untreated when an appropriate level of disease damage appears in untreated check leaf segments (6 to 8 days after application).
as §2

CC(=O)c1cccn1Cc1ccc(-c2noc(C(F)(F)F)n2)cc1 [Compound 1.59, 1-[1-[[4-[5-(trifluoromethyl)-1,2,4-oxadiazol-3-yl]phenyl]methyl]pyrrol-2-yl]ethanone]
inhibition of growth at 20 ppm [1]: ≥ 80%
pest or weed control at 200 ppm [2]: ≥ 80%

COC(=O)c1ncn(Cc2ccc(-c3noc(C(F)(F)F)n3)cc2F)c1C(=O)OC [Compound 1.118, dimethyl 1-[[2-fluoro-4-[5-(trifluoromethyl)-1,2,4-oxadiazol-3-yl]phenyl]methyl]imidazole-4,5-dicarboxylate]
inhibition of growth at 20 ppm [1]: ≥ 80%
pest or weed control at 200 ppm [3]: ≥ 80%
pest or weed control at 200 ppm [4]: ≥ 80%

N#Cc1ncn(Cc2ccc(-c3noc(C(F)(F)F)n3)cc2F)c1C#N [Compound 1.119, 1-[[2-fluoro-4-[5-(trifluoromethyl)-1,2,4-oxadiazol-3-yl]phenyl]methyl]imidazole-4,5-dicarbonitrile]
inhibition of growth at 20 ppm [1]: ≥ 80%
pest or weed control at 200 ppm [3]: ≥ 80%
pest or weed control at 200 ppm [4]: ≥ 80%

Fc1cc(-c2noc(C(F)(F)F)n2)ccc1Cn1cnc(Br)c1 [Compound 1.120, 3-[4-[(4-bromoimidazol-1-yl)methyl]-3-fluoro-phenyl]-5-(trifluoromethyl)-1,2,4-oxadiazole]
inhibition of growth at 20 ppm [1]: ≥ 80%
pest or weed control at 200 ppm [3]: ≥ 80%
pest or weed control at 200 ppm [4]: ≥ 80%

Fc1cc(-c2noc(C(F)(F)F)n2)ccc1Cn1cnc(Cl)c1Cl [Compound 1.121, 3-[4-[(4,5-dichloroimidazol-1-yl)methyl]-3-fluoro-phenyl]-5-(trifluoromethyl)-1,2,4-oxadiazole]
inhibition of growth at 20 ppm [1]: ≥ 80%
pest or weed control at 200 ppm [3]: ≥ 80%
pest or weed control at 200 ppm [4]: ≥ 80%

Cc1cn(Cc2ccc(-c3noc(C(F)(F)F)n3)cc2F)cn1 [Compound 1.124, 3-[3-fluoro-4-[(4-methylimidazol-1-yl)methyl]phenyl]-5-(trifluoromethyl)-1,2,4-oxadiazole]
inhibition of growth at 20 ppm [1]: ≥ 80%
pest or weed control at 200 ppm [3]: ≥ 80%
pest or weed control at 200 ppm [4]: ≥ 80%

Fc1cc(-c2noc(C(F)(F)F)n2)ccc1Cn1cc(Cl)cn1 [Compound 1.128, 3-[4-[(4-chloropyrazol-1-yl)methyl]-3-fluoro-phenyl]-5-(trifluoromethyl)-1,2,4-oxadiazole]
inhibition of growth at 20 ppm [1]: ≥ 80%
pest or weed control at 200 ppm [3]: ≥ 80%
pest or weed control at 200 ppm [4]: ≥ 80%

Fc1cc(-c2noc(C(F)(F)F)n2)ccc1Cn1cc(I)cn1 [Compound 1.131, 3-[3-fluoro-4-[(4-iodopyrazol-1-yl)methyl]phenyl]-5-(trifluoromethyl)-1,2,4-oxadiazole]
inhibition of growth at 20 ppm [1]: ≥ 80%
pest or weed control at 200 ppm [3]: ≥ 80%
pest or weed control at 200 ppm [4]: ≥ 80%

Fc1cc(-c2noc(C(F)(F)F)n2)ccc1Cn1cc(Br)cn1 [Compound 1.132, 3-[4-[(4-bromopyrazol-1-yl)methyl]-3-fluoro-phenyl]-5-(trifluoromethyl)-1,2,4-oxadiazole]
inhibition of growth at 20 ppm [1]: ≥ 80%
pest or weed control at 200 ppm [3]: ≥ 80%
pest or weed control at 200 ppm [4]: ≥ 80%

COC(=O)c1ncn(Cc2ccc(-c3noc(C(F)(F)F)n3)cn2)c1C(=O)OC [Compound 1.133, dimethyl 1-[[5-[5-(trifluoromethyl)-1,2,4-oxadiazol-3-yl]-2-pyridyl]methyl]imidazole-4,5-dicarboxylate]
inhibition of growth at 20 ppm [1]: ≥ 80%
pest or weed control at 200 ppm [3]: ≥ 80%
pest or weed control at 200 ppm [4]: ≥ 80%

N#Cc1ncn(Cc2ccc(-c3noc(C(F)(F)F)n3)cn2)c1C#N [Compound 1.135, 1-[[5-[5-(trifluoromethyl)-1,2,4-oxadiazol-3-yl]-2-pyridyl]methyl]imidazole-4,5-dicarbonitrile]
inhibition of growth at 20 ppm [1]: ≥ 80%
pest or weed control at 200 ppm [3]: ≥ 80%
pest or weed control at 200 ppm [4]: ≥ 80%

FC(F)(F)c1nc(-c2ccc(Cn3cnc(Cl)c3Cl)nc2)no1 [Compound 1.137, 3-[6-[(4,5-dichloroimidazol-1-yl)methyl]-3-pyridyl]-5-(trifluoromethyl)-1,2,4-oxadiazole]
inhibition of growth at 20 ppm [1]: ≥ 80%
pest or weed control at 200 ppm [3]: ≥ 80%
pest or weed control at 200 ppm [4]: ≥ 80%

FC(F)(F)c1nc(-c2ccc(Cn3cc(I)cn3)nc2)no1 [Compound 1.144, 3-[6-[(4-iodopyrazol-1-yl)methyl]-3-pyridyl]-5-(trifluoromethyl)-1,2,4-oxadiazole]
inhibition of growth at 20 ppm [1]: ≥ 80%
pest or weed control at 200 ppm [3]: ≥ 80%
pest or weed control at 200 ppm [4]: ≥ 80%

FC(F)(F)c1nc(-c2ccc(Cn3nnnc3-c3ccccc3Br)cc2)no1 [Compound 1.152, 3-[4-[[5-(2-bromophenyl)tetrazol-1-yl]methyl]phenyl]-5-(trifluoromethyl)-1,2,4-oxadiazole]
inhibition of growth at 20 ppm [1]: ≥ 80%
pest or weed control at 200 ppm [2]: ≥ 80%

FC(F)(F)c1nc(-c2ccc(Cn3nnc(-c4ccccc4Br)n3)cc2)no1 [Compound 1.153, 3-[4-[[5-(2-bromophenyl)tetrazol-2-yl]methyl]phenyl]-5-(trifluoromethyl)-1,2,4-oxadiazole]
pest or weed control at 200 ppm [2]: ≥ 80%

FC(F)(F)c1nc(-c2ccc(Cn3nnc4cc(Cl)c(Oc5ccc6c(c5)OCO6)cc43)cc2)no1 [Compound 1.177, 3-[4-[[6-(1,3-benzodioxol-5-yloxy)-5-chloro-benzotriazol-1-yl]methyl]phenyl]-5-(trifluoromethyl)-1,2,4-oxadiazole]
pest or weed control at 200 ppm [2]: ≥ 80%

CCOC(=O)c1ccc2c(c1)nnn2Cc1ccc(-c2noc(C(F)(F)F)n2)cc1 [Compound 1.184, ethyl 1-[[4-[5-(trifluoromethyl)-1,2,4-oxadiazol-3-yl]phenyl]methyl]benzotriazole-5-carboxylate]
inhibition of growth at 20 ppm [1]: ≥ 80%
pest or weed control at 200 ppm [2]: ≥ 80%

CCOC(=O)c1ccc2nn(Cc3ccc(-c4noc(C(F)(F)F)n4)cc3)nc2c1 [Compound 1.185, ethyl 2-[[4-[5-(trifluoromethyl)-1,2,4-oxadiazol-3-yl]phenyl]methyl]benzotriazole-5-carboxylate]
inhibition of growth at 20 ppm [1]: ≥ 80%
pest or weed control at 200 ppm [2]: ≥ 80%

CCOC(=O)c1cc(C2CC2)nn1Cc1ccc(-c2noc(C(F)(F)F)n2)cc1 [Compound 1.187, ethyl 5-cyclopropyl-2-[[4-[5-(trifluoromethyl)-1,2,4-oxadiazol-3-yl]phenyl]methyl]pyrazole-3-carboxylate]
pest or weed control at 200 ppm [2]: ≥ 80%

FC(F)(F)c1cc(Cl)c2nnn(Cc3ccc(-c4noc(C(F)(F)F)n4)cc3)c2c1 [Compound 1.195, 3-[4-[[4-chloro-6-(trifluoromethyl)benzotriazol-1-yl]methyl]phenyl]-5-(trifluoromethyl)-1,2,4-oxadiazole]
pest or weed control at 200 ppm [2]: ≥ 80%

Cc1ccc(-c2nnnn2Cc2ccc(-c3noc(C(F)(F)F)n3)cc2)cc1 [Compound 1.201, 3-[4-[[5-(p-tolyl)tetrazol-1-yl]methyl]phenyl]-5-(trifluoromethyl)-1,2,4-oxadiazole]
pest or weed control at 200 ppm [2]: ≥ 80%

FC(F)(F)c1nc(-c2ccc(Cn3nnnc3-c3ccc(Cl)cc3)cc2)no1 [Compound 1.230, 3-[4-[[5-(4-chlorophenyl)tetrazol-1-yl]methyl]phenyl]-5-(trifluoromethyl)-1,2,4-oxadiazole]
pest or weed control at 200 ppm [2]: ≥ 80%

COc1ccc(Cc2ccc(-c3noc(C(F)(F)F)n3)cc2)cn1 [Compound 1.254, 3-[4-[(6-methoxy-3-pyridyl)methyl]phenyl]-5-(trifluoromethyl)-1,2,4-oxadiazole]
inhibition of growth at 20 ppm [1]: ≥ 80%
pest or weed control at 200 ppm [3]: ≥ 80%
pest or weed control at 200 ppm [4]: ≥ 80%

CON=C1CCN(Cc2ccc(-c3noc(C(F)(F)F)n3)cc2)C1 [Compound 1.292, N-methoxy-1-[[4-[5-(trifluoromethyl)-1,2,4-oxadiazol-3-yl]phenyl]methyl]pyrrolidin-3-imine]
inhibition of growth at 20 ppm [1]: ≥ 80%
pest or weed control at 200 ppm [3]: ≥ 80%
pest or weed control at 200 ppm [4]: ≥ 80%
